# Source: patent US20080227854A1, “Compound 3-(1, 1-Dimethyl-Allyl)-6-Hydroxy-Chromen-2-One and its Pharmaceutically Acceptable Salts Thereof” (COUNCIL OF SCIENTIFIC & INDUSTRIAL RESEARCH, priority 2007, published 2008)
# Legend:
# [1] = system: nitric oxide production in murine macrophage cells (J774); test: Nitric oxide assay using Griess nitrite assay in LPS-challenged macrophages; format: cell-based
# Method: Murine macrophage cell line (J-774) was used to check the anti-inflammatory effects of the extract, sub-fractions and the isolated active compounds. The macrophages are cultured in Dulbeccos Modified Eagles Medium (DMEM) supplemented with antibiotic and antimycotic solution and 10% fetal calf serum at 37° C. in a CO2 incubator (5%). The cell viability was measured using the Trypan blue exclusion method. For inducing the inflammatory conditions the cell were stimulated with LPS (1 μg/ml) and the effect of the compounds on the inflammatory condition was assessed by measuring the inflammatory mediator, nitric oxide and the respective inos gene expression by the murine macrophages.
# The murine macrophage cells release nitric oxide along with other pro-inflammatory molecules, when stimulated with LPS. The cells were preincubated with the crude extract (300 and 500 μg/ml), ethyl ether fraction (50, 100, 150 μg/ml), the isolated active compound (5, 10, 20 μg/ml) and rutin (20, 40, 80 μM) for 2 hours and then challenged with LPS (1 μg/ml) for 16 hours. After 16 hours the cell supernatant was used to measure the nitric oxide production as nitrite using Griess nitrite assay (Lee et al., 2003, Life Science 73, 1401-1412). Equal amount of cell supernatant was incubated with Griess reagent for 10 minutes at room temperature and the magenta color developed was measured using spectrophotometer.
# Each of the four fractions obtained in Example III were then used in different concentrations (50 μg/ml, 100 µg/ml and 150 μg/ml) for their effect on nitric oxide inhibition in vitro. Murine macrophages (J774) were maintained in DMEM medium, 37° C. in CO2 incubator (5% CO2). The cells were harvested and challenged with LPS (Sigma) at a concentration of 1 μg/ml with and without the four test fractions obtained in Example III for 16 hours at 37° C. in the humidified incubator with 5% CO2. After 16 hours the cell free supernatant was collected and the nitric oxide production was measured as described by Lee et al. Briefly 100 μl of supernatant samples were incubated for 10 min at room temperature with an equal volume of Griess reagent (0.1% naphthalene diamine dihydrochloride, 1% sulfanilamide in 5% H2SO4) in microtitre plate. The absorbance at 550 nm was measured. Sodium nitrite was used as the standard.
# [2] = system: murine macrophage cells (J774); test: Cytotoxicity assay using MTT; format: cell-based; conditions: for Cell viability (%): J774, MTT
# Method: The murine macrophage cells were plated in cell culture plates and then treated with or without the crude extract/ethyl ether fraction/purified compound. The cells were then washed and challenged with LPS (1 μg/ml) for 16 hours. The MTT (5 mg/ml in PBS) was then added and the cells were further incubated for 4 hours at 37° C. in CO2 incubator. MTT solubilization buffer was then added and absorbance at 590 nm was determined.
# Balb/c mice = test: LPS induced endotoxemia in Balb/c mice, total nitrite in plasma; format: in vivo
# Method: The HPLC purified lead compound was suspended in phosphate buffered saline (PBS) at a concentration of 20 mg/ml for in vivo experiment. Balb/c mice, 6 to 8 week of age, weighing 23-25 g, were housed in micro-barrier cages on sterile bedding and fed ad libitum water and food. The animals were divided into three groups containing 6 mice in each group. Four milligrams (160 mg/kg body weight) of the isolated lead compound was administered intra-peritoneally (i.p.) 2 hours prior to LPS challenge. After 2 hours 150 μg LPS was injected i.p., and the mice were kept for 8 hours. In negative control mice, PBS was injected whereas, only LPS injected mice were used as positive control. After 8 hours of LPS injection, the blood was collected in ACD buffer from each mouse by retro-orbital puncture. The blood samples were immediately centrifuged and the plasma samples were collected and stored at −20° C. till nitrite assay. The plasma samples were then diluted 1:1 using 1× reaction buffer (total nitrite estimation kit, R & D systems, USA) and protein from the plasma was removed using 10 kDa centricon (Centricon, USA). Then protein free plasma samples were used for total nitrite estimation (NO^2−+NO^3−) using the same kit.
# The Balb/c mice were used to validate the in vivo effect of the active compound on endotoxin induced inflammation by LPS. Balb/c mice, 6 to 8 week of age, weighing 23-25 g, were housed in micro-barrier cages on sterile bedding and fed ad libitum water and food. The animals were divided into three groups containing 6 mice in each group. Four milligrams (160 mg/kg body weight) of the active compound was preinjected intra-peritonially (i.p.) into the mice for two hours and then LPS (150 μg) was injected i.p. and left for eight hours. […] The plasma from the blood samples were collected by centrifuging at […] for 10 minutes and stored at −80° C. till nitric oxide was analyzed using Griess nitrite assay. The total nitrite in the plasma samples were detected using nitric oxide (NO^2−/NO^3−) assay kit (R & D systems, USA). […]
# inos gene = test: RT-PCR analysis for inos gene expression; format: cell-based, murine
# Method: The murine macrophage cells were preincubated with the test extract, ethyl ether fraction and the compound for 2 hours (as mentioned above), washed and then challenged with LPS for 4 hours. After the incubation period the cells were washed with phosphate buffered saline (PBS), scraped and then pelleted by centrifugation. The total RNA from the pelleted cells was isolated using EZ-RNA isolation kit (Biological industries) using vendor recommended protocol. Then, cDNA was prepared from the total RNA using single strand cDNA synthesis kit (Clontech, USA) and the expression of inos gene was estimated using gene specific primers for inos gene.
# The murine macrophage cells (J774) were challenged with LPS at a concentration of 1 μg/ml with and without the four test fractions obtained in Example III for 4 hours at 37° C. in the humidified incubator with 5% CO2. The cells were harvested and were used to isolate the total RNA using (RNA isolation kit, Qiagen). The RNA was quantified spectrophotometrically and 2 μg of total RNA from each sample was used for cDNA synthesis (cDNA synthesis kit, Clontech). Gene specific PCR for the inducible nitric oxide synthase (inos) and glyceraldehyde-3-phosphatedehyrogenase (G3PDH) as house keeping gene was performed. Primer sequences were designed from cDNA sequences of the specific gene (www:ncbi.nlm.nih.gov/locuslink) using DNASTAR software. […]
compound,measurement,setting,value
"C[C@@H]1O[C@@H](OC[C@H]2O[C@@H](Oc3c(-c4ccc(O)c(O)c4)oc4cc(O)cc(O)c4c3=O)[C@H](O)[C@@H](O)[C@@H]2O)[C@H](O)[C@H](O)[C@H]1O [Rutin, reference compound]",inhibition at 20 µM,"[1]; Mus musculus, J774, 16 h, 12.2 μg (20 μM), J774, LPS 1 μg/ml 16 h",11%
same,inhibition at 40 µM,"[1]; Mus musculus, J774, 16 h, 24.4 μg (40 μM), J774, LPS 1 μg/ml 16 h",20.6%
same,inhibition at 80 µM,"[1]; Mus musculus, J774, 16 h, 48.8 μg (80 μM), J774, LPS 1 μg/ml 16 h",27%
same,Cell viability (%),[2]; 12.2 μg (20 μM),>85%
same,Cell viability (%),[2]; 24.4 μg (40 μM),>85%
same,Cell viability (%),[2]; 48.8 μg (80 μM),≦75%
"C=CC(C)(C)c1cc2cc(O)ccc2oc1=O [Rg-001, 3-(1,1-dimethyl-allyl)-6-hydroxy-chromen-2-one]",Nitric oxide inhibition (%),"[1]; 5 μg (21.74 μM), J774, LPS 1 μg/ml 16 h, 21.74 µM",25.4%
same,Nitric oxide inhibition (%),"[1]; 20 μg (87 μM), J774, LPS 1 μg/ml 16 h, 87 µM",63.5%
same,inhibition of nitric oxide production,"[1]; 5, 10 and 20 μg/ml, J774, LPS",significant inhibition
same,inhibition at 21.74 µM,"[1]; Mus musculus, J774, 16 h, 5 μg (21.74 μM), J774, LPS 1 μg/ml 16 h",25%
same,inhibition at 43.5 µM,"[1]; Mus musculus, J774, 16 h, 10 μg (43.5 μM), J774, LPS 1 μg/ml 16 h",40%
same,inhibition at 87 µM,"[1]; Mus musculus, J774, 16 h, 20 μg (87 μM), J774, LPS 1 μg/ml 16 h",70%
same,Cell viability (%),[2]; 5 μg (21.74 μM),>85%
same,Cell viability (%),[2]; 10 μg (43.5 μM),>85%
same,Cell viability (%),[2]; 20 μg (87 μM),>85%
same,Cell viability (%),"[2]; 20 μg (87 μM), listed as 3-(1,1-dimethyl-allyl)-6-hydroxy-chromen-2-one",> 85%
same,cell viability,[2]; all the doses ranging from 20 to 100 μg/ml,> 85%
same,viability of macrophage cells,"[2]; highest concentration 50 μg i.e. 217.5 μM, MTT",> 85%
same,inhibition of total nitrite in the plasma samples,"Balb/c mice; 160 mg/kg body weight i.p. 2 hours prior to LPS (150 μg), blood after 8 hours",> 75%
same,behavioral condition of treated mice,"Balb/c mice; 160 mg/kg i.p., 8 hours after LPS, compared to the LPS challenged mice",normal behavioral condition
same,in-vivo inflammation (NO inhibition),Balb/c mice; effective dose of 40 mg/kg to 160 mg/kg body weight,60% to 80
same,inhibition of inos gene,inos gene,70%
same,effect on inos gene expression,"inos gene; J774, LPS challenge",inhibit the gene expression significantly
